Reference: patent publication US20190031650A1, “DNA ALKYLATION AND CROSS-LINKING AGENTS AS COMPOUNDS AND PAYLOADS FOR TARGETED THERAPIES” (YALE UNIVERSITY, priority 2016, published 2019)
Entries after “also recorded” stand apart in the source; their conditions may differ.

Columns and labels:
[1] = tested on: colibactin peptidase ClbP; assay: LC-HRMS analysis for the in vivo cleavage of synthetic 6 by ClbP; type: cell-based; conditions: 50 μM in E. coli DH10B pClbP culture, 37° C., 24 h
Experimental: E. coli DH10B pClbP (pPEB018) and the bacteria harboring the empty vector pBAD18 (as previously reported^3) were grown in LB medium supplemented with 100 μg/mL ampicillin. The next morning, 50 μL of these saturated cultures were used to inoculate 2.5 mL of LB medium containing 100 μg/mL ampicillin. Cultures were incubated at 37° C. with shaking at 250 rpm. At an OD600 of 0.4-0.5, cultures were induced with L-arabinose and left to grow for another 30 min. Then, the synthetic 6 substrate (10 mM stock solution in DMSO) or DMSO (vector control) was added to each culture to a final concentration of 50 μM, and incubated at 37° C. for 24 h. At the designated time point, the cultures were extracted with organic solvent and analyzed by LC-HRMS on a Phenomenex C18-A column (150×4.6 mm, 180 Å, 5 μm particle size, Agilent) with a water:acetonitrile (ACN) gradient containing 0.1% formic acid 0.7 mL/min: 1-2 min, 5% ACN; ramp to 98% ACN over 18 min; hold for 5 min at 100% ACN.

[2] = tested on: colibactin peptidase ClbP; conditions: earlier publication (ref. 10); cited from earlier work
linearized pBR322 DNA = assay: DNA alkylation assay (electrophoretic gel assay) with linearized pBR322 DNA; type: biochemical; conditions: 37° C.; for DNA cross-linking: 10 μM
Experimental: FIG. 17 A. DNA alkylation assay employing linearized pBR322 DNA and the pyridone derivatives 17a or 17b or the unsaturated imines 15a or 15b. Conditions: Linearized pBR322 DNA (20 μM in base pairs (bps)), 15a (100, 10, 1, 0.5, or 0.1 μM), 15b (500, 100, 10, or 1 μM), 17a (500 or 100 μM) or 17b (500 or 100 μM), 37° C., 15 h. Cisplatin (CP; 100 μM) and methyl methanesulfonate (MMS; 500, 100, or 10 μM) were used as positive controls for DNA cross-linking and alkylation, respectively. DNA was visualized using SybrGold. B. DNA alkylation assay employing linearized pBR322 DNA and the unsaturated imine 15a. Conditions: Linearized pBR322 DNA (20 μM in base pairs), 15a (100, 10, 1, 0.1, 0.05, 0.01, or 0.005 μM), 37° C., 15 h.
FIG. 19 A. Structures of the dimer 15c and the gem-dimethyl derivative 15d. B. DNA alkylation assay employing linearized pBR322 DNA and the dimer 15c or the gem-dimethyl derivative 15d. Conditions: Linearized pBR322 DNA (20 μM in base pairs), 15c (10 μM) or 15d (500 or 100 μM), 37° C., 0.1-15 h.
B. DNA alkylation assay employing linearized pBR322 DNA and the unsaturated lactam 19 or the unsaturated imine 15j. Conditions: Linearized pBR322 DNA (20 μM in base pairs), 19 (500, 100, 10, or 1 μM) or 15j (500, 100, 10, or 1 μM), 37° C., 15 h.
Conditions: Linearized pBR322 DNA (20 μM in base pairs), 15h (1, 0.1, or 0.01 μM), 15i (1, 0.1, or 0.01 μM), 15f (1, 0.1, or 0.01 μM), 15g (1, 0.1, or 0.01 μM), 15a (1, 0.1, or 0.01 μM), 15e (1, 0.1, or 0.01 μM), 37° C., 15 h. Methyl methanesulfonate (MMS; 500 or 100 μM) was used as a positive control for DNA alkylation. DNA was visualized using SybrGold.
The activity of 15a, 15b, 17a, and 17b was evaluated in a DNA alkylation assay. Plasmid pBR322 DNA was treated with EcoRI-HF in Cutsmart buffer, and the resulting linearized DNA was incubated with 15a, 15b, 17a, or 17b for 15 h at 37° C. The DNA was then denatured, and the sample was eluted on a 1% neutral agarose gel. DNA was visualized with SybrGold. Cisplatin (CP, 100 μM) and methyl methanesulfonate (MMS, 500, 100, or 10 μM) were used as positive controls for DNA cross-linking and alkylation, respectively. […] The streaking of DNA induced by 15a and 15b parallels that observed with 500 μM of MMS and derives from the presence of shorter DNA strands that are formed by thermal or alkaline denaturation of extensively-alkylated (or in the case of MMS, methylated) DNA.^16 Further evidence for direct alkylation by 15a and 15b is presented in the cross-linking study outlined below.
The […] plasmid pBR322 was propogated in DH5a, isolated by MaxiPrep (Qiagen), and linearized with 5 U/μg EcoRI (NEB). The cut plasmid was column purified and eluted into 10 mM Tris pH 8.0. For each reaction, 130 ng of DNA (20 μM base pairs) was incubated with compound in a 10 μL total volume. Reactions proceeded for 15 h at 37° C., unless otherwise noted. Compounds were diluted in DMSO such that each reaction consisted of a fixed 5% DMSO concentration. Pure MMS (Alfa Aesar) and cisplatin (Biovision) stock solutions were diluted into DMSO immediately prior to use. After incubation, 35 μL of denaturation buffer (6% sucrose, 1% sodium hydroxide, 0.04% bromophenol blue) was added to each reaction. Non-denatured control samples were diluted with 6% sucrose, 0.04% bromophenol blue. Samples were vortexed for 1 min, left at room temperature for 15 min, and then immediately frozen at −80° C. Thawed samples were then loaded onto a 1% agarose Tris-Borate-EDTA (TBE) gel stained with SybrGold (Molecular Probes) and run in TBE buffer for 1 hour at 120V.

calf thymus DNA (ctDNA) = assay: DNA melting temperature analysis (UV thermal denaturation); type: binding
Experimental: (§1) Conditions: 2.09 mM NaH2PO4, 7.13 mM Na2HPO4, 928 μM Na2EDTA, 1.01 mM DMSO, pH 7.18. The imine 15a was incubated with ctDNA for 5 min, 1 h, 3 h, 6 h, or 15 h prior to UV thermal denaturation experiments (260 nm, heating rate: 0.5° C./min). [DNA]=32.0 mM bps. The Tm was defined as the temperature at which half of the duplex DNA was unwound, and was determined by the maximum of the first derivative of the thermal denaturation profile.
as §1, with “pyridone 17a” for “imine 15a”, “for” for “for 5 min, 1 h,”, “3” for “3 h, 6 h, or 15”
A DNA melting temperature analysis was conducted to determine if the variance in DNA alkylation activity between the pyridones and the unsaturated imines was due to differences in DNA binding affinity. The hyperchromicity of calf thymus DNA (ctDNA) with increasing temperature was measured at 260 nm in the presence of varying concentrations of 15a or 17a. The Tm was defined as the temperature at which half of the duplex DNA was unwound and was determined by the maximum of the first derivative of the thermal denaturation profile. […] The inventors hypothesized that this was due to an initial binding of 15a to the duplex followed by slow alkylation and degradation. To probe this, they repeated the plasmid alkylation assay using 15a and evaluated the extent of DNA alkylation as a function of time.
UV thermal denaturation samples were prepared by mixing calf thymus DNA [32.0 mM base pairs (bps)] in 2.09 mM NaH2PO4, 7.13 mM Na2HPO4, 928 μM Na2EDTA, 1.01 mM DMSO, pH 7.18 to a final volume of 1.0 mL. Samples were subjected to sonication (6 h) at 25° C. to effect complete dissolution. After incubation with 15a, 15b, 17a, and 17b for 5 min, 1 h, 3 h, 6 h, or 15 h, the UV thermal denaturation spectra of the samples were recorded at 260 nm as a function of temperature (55→80° C., heating rate: 0.5° C./min). First derivative plots were used to determine the denaturation temperature.

[3] = 2 bp equiv, incubation 5 min to 15 h
[4] = linearized pBR322 DNA (20 μM bp), 15 h, concentrations up to 500 μM
[5] = linearized pBR322 DNA (20 μM bp), 15 h

In the case of CCCCCCCCCCCCCC(=O)N[C@H](CC(N)=O)C(=O)N[C@@H](C)CCc1c2c(cc(=O)n1Cc1nc(-c3nc(C(=O)O)cs3)cs1)C1(CC1)NC2=O [precolibactin C (6)], the “cleavage by ClbP” value [1] is listed as “converted to N-myristoyl-D-Asn and its corresponding colibactin by colibactin peptidase ClbP; also recorded: converted to N-myristoyl-D-Asn and its corresponding colibactin in a ClbP-dependent manner” and the “substrate for ClbP” value [2] is listed as “demonstrated to be a substrate for ClbP”.
In the case of C[C@@H](CCC(=O)C1=C(CC(=O)N(C)Cc2nc(-c3nc(C(=O)NCCN(C)C)cs3)cs2)C2(CC2)NC1=O)NC(=O)OC(C)(C)C [compound 19], the DNA alkylation activity (linearized pBR322 DNA; 500 μM, 15 h (FIG. 21B)) is reported as “weak DNA alkylation activity”.
With CNC(=O)c1csc(-c2csc(Cn3c(CC[C@H](C)N)c4c(cc3=O)C3(CC3)NC4=O)n2)n1 [17b] the “modulation of the melting temperature of calf thymus DNA” value (“modulation” for short) (calf thymus DNA (ctDNA); [3]) was “no significant modulation” and the DNA alkylation activity (linearized pBR322 DNA; [4]) was “neither of the pyridone derivatives 17a or 17b displayed measurable activity”.
With C[C@H]1CCC(C2=C(CC(=O)NCc3nc(-c4nc(C(=O)NCCN(C)C)cs4)cs3)C3(CC3)NC2=O)=N1 [15a] the “time dependence of the effect on melting temperature / duplex stability” value (calf thymus DNA (ctDNA); 1 or 2 bp equiv, incubation 5 min, 1 h, 3 h, 6 h or 15 h) was “time-dependent effects on duplex stability; also recorded: Time-dependent modulation of the melting temperature”, the duplex stability (calf thymus DNA (ctDNA); longer incubations (3-15 h), 1 or 2 bp equiv) was “duplex stability decreased” and the “increase in Tm” value (calf thymus DNA (ctDNA); rligand/bp=2) was 1.8 °C. For the same compound, the duplex stability (calf thymus DNA (ctDNA); times less than 1 h, 1 or 2 bp equiv) was “stabilization of the duplex was observed”, the “extent of DNA damage, dose response” value (linearized pBR322 DNA; 5 nM, 15 h (FIG. 17B)) was “negligible” and the “extent of DNA alkylation as a function of time” value (linearized pBR322 DNA; 1 μM, 0.1-15 h (FIG. 18C)) was “alkylation activity correlated approximately with the decrease in duplex stability”. The “DNA damage, dose response” value (linearized pBR322 DNA; 50 or 10 nM, 15 h (FIG. 17B)) was “small amounts of DNA damage”, the “DNA alkylation, dose response” value (linearized pBR322 DNA; concentrations as low as 100 nM, 15 h (FIG. 17B)) was “extensive DNA alkylation” and the DNA alkylation (linearized pBR322 DNA; [5]) was “extensively alkylated DNA”. For the same compound, the “DNA alkylation activity relative to 15b” value (linearized pBR322 DNA; linearized pBR322 DNA, 15 h (FIG. 17A)) was “significantly more active than the N-methylamide 15b”.
In the case of C[C@H]1CCC(C2=C(CC(=O)NCc3nc(-c4nc(C(=O)NCCCN(C)CCCNC(=O)c5csc(-c6csc(CNC(=O)CC7=C(C8=N[C@@H](C)CC8)C(=O)NC78CC8)n6)n5)cs4)cs3)C3(CC3)NC2=O)=N1 [15c], the DNA cross-linking (linearized pBR322 DNA; 3 h) is reported as “a clear cross-linked band” and the DNA cross-linking (linearized pBR322 DNA; later timepoints (6 or 15 h)) is reported as “this cross-linked band diminished”.
In the case of CNC(=O)c1csc(-c2csc(CNC(=O)CC3=C(C4=N[C@@H](C)CC4)C(=O)NC34CC4)n2)n1 [15b], the “modulation” value (calf thymus DNA (ctDNA); 1 bp equiv, incubation 5 min, 3 h or 15 h) is reported as “no significant modulation”, the “modulation” value (calf thymus DNA (ctDNA); [3]) is reported as “no significant modulation” and the DNA alkylation (linearized pBR322 DNA; [5]) is reported as “extensively alkylated DNA”.
With C[C@H](N)CCc1c2c(cc(=O)n1Cc1nc(-c3nc(C(=O)NCCN(C)C)cs3)cs1)C1(CC1)NC2=O [17a] the “effect of increasing amounts on melting temperature of ctDNA” value (calf thymus DNA (ctDNA); incubated with ctDNA for 3 h, 260 nm) was “dose-dependent increase in the melting temperature”, the “increase in Tm” value (calf thymus DNA (ctDNA); ratio of compound to base pairs of 4.0, incubated 3 h) was 3.8 °C and the “increase in Tm” value (calf thymus DNA (ctDNA); rligand/bp=2) was 2.8 °C. The DNA alkylation activity (linearized pBR322 DNA; [4]) was “neither of the pyridone derivatives 17a or 17b displayed measurable activity”.
In the case of C[C@H]1CCC(C2=C(CC(=O)N(C)Cc3nc(-c4nc(C(=O)NCCN(C)C)cs4)cs3)C3(CC3)NC2=O)=N1 [15j], the “DNA alkylation / decomposition of the DNA” value (linearized pBR322 DNA; 10 or 1 μM, 15 h (FIG. 21B)) is reported as “extensive decomposition of the DNA” and the “DNA alkylation potency relative to lactam 19” value (linearized pBR322 DNA; 15 h (FIG. 21B)) is reported as “significantly more potent”.
For C[C@H]1CCC(C2=C(CC(=O)NCc3nc(-c4nc(C(=O)NCCN(C)C)cs4)cs3)C(C)(C)NC2=O)=N1 [15d], the DNA alkylation activity (linearized pBR322 DNA; [4]) was “did not alkylate DNA”.
